Entries after “also recorded” stand apart in the source; their conditions may differ.
Tests used:
[1] = Solubility of the agents in assay buffer / water; type: physicochemical; settings: aqueous Tris-HCl/NaCl buffer pH 7.4
L1210 cell line = experiment: In vitro cytotoxic activity, L1210; type: cell-based
[2] = test system: calf thymus DNA and 5'-d(GCATGC)2; experiment: DNA binding affinity trends over calf thymus DNA and 5'-d(GCATGC)2 (fluorescence quenching)
Method: (§1) Apparent absolute DNA binding constants for 1-22 and related agents including luzopeptin A were obtained by measurement of the fluorescence quenching upon titration addition of calf thymus DNA or the deoxyoligonucleotides 5'-d(GCXXGC)2 where XX=AT, TA, GC, and CG. For each agent, the characteristic fluorescence excitation and emission spectra were recorded in 10 mM Tris-HCl, 75 mM NaCl (pH 7.4) buffer, FIG. 6. For the DNA binding assays which quantitate the fluorescence quenching, excitation outside the absorbance range of DNA was employed and the most intense fluorescence emission at a longer wavelength monitored. For assay of the DNA-induced fluorescence quenching of the agents, a 2 mL buffer solution of Tris-HCl (pH 7.4) and 75 mM NaCl was employed. For titration, small aliquots of DNA were added to solutions of the agents in Tris-HCl buffer (pH 7.4).
(§2) Despite these precautions, the fluorescence for a number of the analog solutions decreased for several of analogs (11, 14, 17, 21 and 22) and the quality of the binding constants for these should be viewed with caution. […] The titrations were carried out with 15 min time intervals between DNA additions to allow binding equilibration. […] The titration fluorescence quenching was analyzed by Scatchard analysis (Scatchard, G. Ann. N. Y. Acad. Sci. 1949, 51, 660) with the following equation: rb /c=Kb n-Kb rb where rb is the number of agent molecules bound per DNA base-pair, c is the free drug concentration, Kb is the apparent association constant, and n is the number of agent binding sites per base-pair.
A pronounced downward curvature in an infinite lattice such as calf thymus DNA is recognized to arise in part from neighbor exclusion where the binding of an agent excludes the subsequent binding at nearby sites. This exclusion manifests itself in the plot by a reduction in the apparent binding constant as the DNA lattice approaches saturation and the probability of finding a free site is diminished. In the calf thymus DNA studies, the binding also entails multiple classes of independent binding sites or modes. For simplicity, a linear fit of the high affinity binding sites was used to determine the binding constant attributable to bis-intercalation. For the deoxyoligonucleotides, the curvature can be more simply attributed to multiple classes of independent binding sites or binding modes. There are a number of mathematical methods to deconvolute the curved plot into such individual binding events. In the deoxyoligonucleotide studies, a non-linear fit described by Feldman was also used to deconvolute the curves. The model assumes one ligand with two binding types or sites. Since the number of binding sites is limited, we have interpreted this to indicate a high affinity bis-intercalation and a lower affinity binding potentially involving mono-intercalation. The formula was fit using the JMP^22 statistical fitting program using an initial approximation of the two n values and fitting for K1 and K2.
After 5 min of stirring, an initial fluorescence reading was taken with minimum exposure to the excitation beam. […] The excitation and emission wavelengths used for each analog varied and can be found in FIG. 6. The results of the titration were analyzed by Scatchard analysis. The linear portion of the Scatchard plot was used to determine the high affinity binding constants. In the case of the deoxyoligonucleotide study, a non-linear fit of the curve as described in the text was also used to determine the high affinity binding constant (Feldman, H. A. Anal. Biochem. 1972, 48, 317).

[3] = molecular target: HIV-1 reverse transcriptase (Human immunodeficiency virus type 1 group M subtype B, UniProt P04585); experiment: Inhibition of HIV-1 reverse transcriptase; type: biochemical
Method: The assay was performed according to an available procedure (Goldman, M. E.; Salituro, G. S.; Bowen, J. A.; Williamson, J. M.; Zink, D. L.; Schleif, W. A.; Emini, E. A. Mol. Pharmacol. 1990, 38, 20) with slight modification. A 45 L solution of reaction buffer containing 55 mM Tris·HCl, pH 8.2, 80 mM potassium chloride, 12 mM MgCl2, 1 mM DTT, 50 M EGTA, 2.5 g/mL rA·dT, 0.5 Ci of [^3 H]TTP, 10 M TTP, 1 mg/mL BSA, and 0.01% Triton X-100 was added to a well in a filter cluster plate (Millipore MAHV N45). The reverse transcription reaction was initiated upon addition of the reverse transcriptase (1 unit; 1 unit=10 pmol of [^3 H]TMP incorporated/60 min at 37° C.). The plate was incubated at 37° C. for 90 min. The plate was then placed on ice and 200 µL of 13% trichloroacetic acid and 10 mM sodium pyrophosphate was added to each well. The plate was chilled for 2 h and the liquid vacuumed out through the filter using a Millipore manifold (Millipore MAVM 09601). The precipitate was washed with 1 M and 10 mM sodium pyrophosphate twice. The filter was punched out and placed in a scintillation vial. 4 mL of cocktail was added. Radioactivity was determined by liquid scintillation counting.
The effects of sandramycin and its analogs on HIV-1 reverse transcriptase were determined by incubating the agents and the rA·dT containing buffer at 25° C. for 30 min prior to addition of the reverse transcriptase. Reactions containing no agents were used as controls, and those lacking the transcriptase were used as blanks.

five cell lines = experiment: In vitro cytotoxic activity of key substructure analogs, five cell lines; type: cell-based; settings: five cell lines
5'-d(GCATGC)2 = experiment: DNA binding by fluorescence quenching, 5'-d(GCATGC)2; settings: 5'-d(GCATGC)2, relative to 1 and 4
Method: as §1, §2
A pronounced downward curvature in an infinite lattice such as calf thymus DNA is recognized to arise in part from neighbor exclusion where the binding of an agent excludes the subsequent binding at nearby sites. This exclusion manifests itself in the plot by a reduction in the apparent binding constant as the DNA lattice approaches saturation and the probability of finding a free site is diminished. In the calf thymus DNA studies, the binding also entails multiple classes of independent binding sites or modes. […]

Compound	solubility in the fluorescence quenching assay [1]	cytotoxic potency, fold less potent than 1 (L1210 cell line)	DNA binding affinity, in words [2]	HIV-1 reverse transcriptase inhibition, in words [3]	further results
CC(C)[C@H]1C(=O)OC[C@@H](NC(=O)c2cc3ccccc3cc2O)C(=O)N2CCCC[C@H]2C(=O)NCC(=O)N(C)CC(=O)N(C)[C@@H](C(C)C)C(=O)OC[C@@H](NC(=O)c2cc3ccccc3cc2O)C(=O)N2CCCC[C@H]2C(=O)NCC(=O)N(C)CC(=O)N1C [compound 5, (N-(3-Hydroxynaphthyl-2-carbonyl)-D-Ser-Pip-Gly-Sar-NMe-Val)2(Serine Hydroxyl) Dilactone]	not sufficiently soluble; also recorded: limited solubility	10000	substantially less effective than all agents in the series	much less effective	
CC(C)[C@H]1C(=O)OC[C@@H](NC(=O)c2ccc3ccccc3c2)C(=O)N2CCCC[C@H]2C(=O)NCC(=O)N(C)CC(=O)N(C)[C@@H](C(C)C)C(=O)OC[C@@H](NC(=O)c2ccc3ccccc3c2)C(=O)N2CCCC[C@H]2C(=O)NCC(=O)N(C)CC(=O)N1C [compound 7]	not sufficiently soluble; also recorded: limited solubility		substantially less effective than all agents in the series	much less effective	cytotoxic potency, fold less potent than 4 (L1210 cell line): 2000; cytotoxic potency, fold less potent than 5 (L1210 cell line): 2
COc1ccc2nc(C(=O)NC3COC(=O)C(C(C)C)N(C)C(=O)CN(C)C(=O)CNC(=O)C4CCCCN4C(=O)C(NC(=O)c4nc5ccc(OC)cc5cc4O)COC(=O)C(C(C)C)N(C)C(=O)CN(C)C(=O)CNC(=O)C4CCCCN4C3=O)c(O)cc2c1 [compound 11, (N-(3-Hydroxy-6-Methoxy-quinolinyl-3-carbonyl)-D-Ser-Pip-Gly-Sar-NMe-Val)2 (Serine Hydroxyl) Dilactone]		2	slightly less effective		
Cc1ccc2nc(C(=O)N[C@@H]3COC(=O)[C@H](C(C)C)N(C)C(=O)CN(C)C(=O)CNC(=O)[C@@H]4CCCCN4C(=O)[C@H](NC(=O)c4nc5ccc(C)cc5cc4O)COC(=O)[C@H](C(C)C)N(C)C(=O)CN(C)C(=O)CNC(=O)[C@@H]4CCCCN4C3=O)c(O)cc2c1 [compound 14, (N-(-3-Hydroxy-6-methylquinolinyl-2-carbonyl)-D-Ser-Pip-Gly-Sar-NMe-Val). sub.2 (Serine Hydroxyl) Dilactone]		1	consistently slightly less effective	Comparable but slightly less potent inhibition	
CC(C)[C@H]1C(=O)OC[C@@H](NC(=O)c2nc3cc(Cl)ccc3cc2O)C(=O)N2CCCC[C@H]2C(=O)NCC(=O)N(C)CC(=O)N(C)[C@@H](C(C)C)C(=O)OC[C@@H](NC(=O)c2nc3cc(Cl)ccc3cc2O)C(=O)N2CCCC[C@H]2C(=O)NCC(=O)N(C)CC(=O)N1C [compound 16, (N-(7-Chloro-3-hydroxyquinolinyl-2-carbonyl)-D-Ser-Pip-Gly-Sar-NMe-Val). sub.2 (Serine Hydroxyl) Dilactone]		0.5	nearly indistinguishable from 1	Comparable but slightly less potent inhibition	
CC(C)C1C(=O)OCC(NC(=O)c2cnc3ccccc3n2)C(=O)N2CCCCC2C(=O)NCC(=O)N(C)CC(=O)N(C)C(C(C)C)C(=O)OCC(NC(=O)c2cnc3ccccc3n2)C(=O)N2CCCCC2C(=O)NCC(=O)N(C)CC(=O)N1C [compound 18, (N-(Quinoxalyl-2-carbonyl)-D-Ser-Pip-Gly-Sar-NMe-Val)2 (Serine Hydroxyl) Dilactone]	not sufficiently soluble; also recorded: limited solubility			roughly maintain the HIV-1 reverse transcriptase inhibitory potency of 1; also recorded: Comparable but slightly less potent inhibition	cytotoxic potency, fold less potent than 4 (L1210 cell line): approximately 10; cytotoxic potency, fold less potent than 13 (L1210 cell line): approximately 10; cytotoxic potency, fold more potent than 19 (L1210 cell line): 300; fold less potent than sandramycin [3]: 3
CC(C)[C@H]1C(=O)OC[C@@H](NS(=O)(=O)CC[Si](C)(C)C)C(=O)N2CCCC[C@H]2C(=O)NCC(=O)N(C)CC(=O)N(C)[C@@H](C(C)C)C(=O)OC[C@@H](NC(=O)c2nc3ccccc3cc2O)C(=O)N2CCCC[C@H]2C(=O)NCC(=O)N(C)CC(=O)N1C [compound 24, N^1 -SES,N^6 -(3-hydroxylquinoline-2-carbonyl) (D-Ser-Pip-Gly-Sar-NMe-Val)2 (Serine Hydroxyl) Dilactone]					fold less potent than 1 (five cell lines): 5000-10000
(N-(3-Benzyloxy-7-chloroquinolinyl-2-carbonyl)-D-Ser-Pip-Gly-Sar-NMe-Val)2 (Serine Hydroxyl) Dilactone [compound 17]					reduction of the binding affinity versus 16 ([2]; O-benzylation of chromophore phenol): 2.4 to 2.7 kcal/mol; reduction in inhibitory potency on O-alkylation of the C3 phenol [3]: > 500
(N-(Iso-quinolinyl-3-carbonyl)-D-Ser-Pip-Gly-Sar-NMe-Val)2 (Serine Hydroxyl) Dilactone [compound 21]			comparable to that of the monointercalator 24	much less effective	DNA binding affinity, in words (5'-d(GCATGC)2): substantially less effective
Sandramycin Bis-O-benzyl Ether [compound 2]		1000			fold less potent than 1 (five cell lines): 20-1000

From US6329497A, “Sandramycin analogs” (The Scripps Research Institute, priority 1999, dated 2001)
